Data from PubChem BioAssay AID1918937 (Molecular Pharmacology Branch, DTP, NCI, 2023).
Several values for one entry are separate records, joined by “and”; a condition that tells them apart may be missing. Equal values may be shown once.

System: 521955-158-R2-J5-PDC complex spheroid viability
Assay: Anticancer human tumor 521955-158-R2-J5-PDC patient-derived pancreatic carcinoma cell line growth inhibition
Details: for viability, T/C: stronger effect = lower value
Outline: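 Complex spheroids of tumor cells with HUVEC and human MSCs, exposed to iadademstat combined with other agents. Each agent tested in half-log steps from near clinical Cmax (else 10 microM top), DMSO ≤0.25%.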

[1] = curve of first compound, second compound 0.1 µM
[2] = curve of first compound, second compound 0.316 µM
[3] = curve of first compound, second compound 1 µM
[4] = curve of first compound, second compound 3.16 µM
[5] = curve of first compound, second compound 10 µM
[6] = second compound 0.1 µM, first compound 0.000949 µM
[7] = second compound 0.1 µM, first compound 0.003 µM
[8] = second compound 0.1 µM, first compound 0.00949 µM
[9] = second compound 0.1 µM, first compound 0.03 µM
[10] = second compound 0.1 µM, first compound 0.0949 µM
[11] = second compound 0.1 µM, first compound 0.3 µM
[12] = second compound 0.316 µM, first compound 0.000949 µM
[13] = second compound 0.316 µM, first compound 0.003 µM
[14] = second compound 0.316 µM, first compound 0.00949 µM
[15] = second compound 0.316 µM, first compound 0.03 µM
[16] = second compound 0.316 µM, first compound 0.0949 µM
[17] = second compound 0.316 µM, first compound 0.3 µM
[18] = second compound 1 µM, first compound 0.000949 µM
[19] = second compound 1 µM, first compound 0.003 µM
[20] = second compound 1 µM, first compound 0.00949 µM
[21] = second compound 1 µM, first compound 0.03 µM
[22] = second compound 1 µM, first compound 0.0949 µM
[23] = second compound 1 µM, first compound 0.3 µM
[24] = second compound 3.16 µM, first compound 0.000949 µM
[25] = second compound 3.16 µM, first compound 0.003 µM
[26] = second compound 3.16 µM, first compound 0.00949 µM
[27] = second compound 3.16 µM, first compound 0.03 µM
[28] = second compound 3.16 µM, first compound 0.0949 µM
[29] = second compound 3.16 µM, first compound 0.3 µM
[30] = second compound 10 µM, first compound 0.000949 µM
[31] = second compound 10 µM, first compound 0.003 µM
[32] = second compound 10 µM, first compound 0.00949 µM
[33] = second compound 10 µM, first compound 0.03 µM
[34] = second compound 10 µM, first compound 0.0949 µM
[35] = second compound 10 µM, first compound 0.3 µM
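Also: spheroids exposed to agents for seven days.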
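For viability, T/C in this document: percent of DMSO vehicle control luminescence viability.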

SMILES | IC50 [1] [nM] | IC50 [2] [nM] | IC50 [3] [nM] | IC50 [4] [nM] | IC50 [5] [nM] | viability, T/C [6] [%] | viability, T/C [7] [%] | viability, T/C [8] [%] | viability, T/C [9] [%] | viability, T/C [10] [%] | viability, T/C [11] [%] | viability, T/C [12] [%] | viability, T/C [13] [%] | viability, T/C [14] [%] | viability, T/C [15] [%] | viability, T/C [16] [%] | viability, T/C [17] [%] | viability, T/C [18] [%] | viability, T/C [19] [%] | viability, T/C [20] [%] | further results
Nc1ccn(C2OC(CO)C(O)C2(F)F)c(=O)n1 (configuration not stated) |  |  |  |  |  |  |  |  |  |  |  |  |  |  |  |  |  |  |  |  | viability, T/C (compound 0.000949 µM): 106% and 95.4%; viability, T/C (compound 0.003 µM): 112% and 89%; viability, T/C (compound 0.00949 µM): 97.3% and 98.3%; viability, T/C (compound 0.03 µM): 73.4% and 89.6%; viability, T/C (compound 0.0949 µM): 43% and 50.5%; viability, T/C (compound 0.3 µM): 12% and 17.5%; IC50 (curve of compound): 71.1 nM and 96.5 nM
CCc1c2c(nc3ccc(O)cc13)-c1cc3c(c(=O)n1C2)COC(=O)[C@]3(O)CC + NC1CCC(NC2CC2c2ccccc2)CC1 | < 0.949 | < 0.949 | < 0.949 | < 0.949 | < 0.949 | 4.35 | 3.31 | 1.16 | 0.45 | 0.43 | 0.63 | 5.2 | 4.07 | 0.9 | 0.54 | 0.4 | 0.58 | 5.26 | 3.09 | 0.97 | viability, T/C [21]: 0.59%; viability, T/C [22]: 0.52%; viability, T/C [23]: 0.46%; viability, T/C [24]: 4.43%; viability, T/C [25]: 3.74%; viability, T/C [26]: 0.95%; viability, T/C [27]: 0.3%; viability, T/C [28]: 0.53%; viability, T/C [29]: 1.4%; viability, T/C [30]: 4.7%; viability, T/C [31]: 4.29%; viability, T/C [32]: 1.07%; viability, T/C [33]: 0.67%; viability, T/C [34]: 1.68%; viability, T/C [35]: 0.55%
Nc1ncn(C2CC(O)C(CO)S2)c(=O)n1 (configuration not stated) + NC1CCC(NC2CC2c2ccccc2)CC1 | > 300 | > 300 | > 300 | > 300 | > 300 | 92.9 | 91 | 88.3 | 79.8 | 75.6 | 57.3 | 95.9 | 92.2 | 88.9 | 84.6 | 70.3 | 51.5 | 92.5 | 87 | 93.7 | viability, T/C [21]: 82.8%; viability, T/C [22]: 77.8%; viability, T/C [23]: 56.5%; viability, T/C [24]: 103%; viability, T/C [25]: 110%; viability, T/C [26]: 91.7%; viability, T/C [27]: 88.1%; viability, T/C [28]: 76.6%; viability, T/C [29]: 52.7%; viability, T/C [30]: 93.6%; viability, T/C [31]: 94.9%; viability, T/C [32]: 98%; viability, T/C [33]: 82.8%; viability, T/C [34]: 77.4%; viability, T/C [35]: 54.9%
